Experimental data reported in patent publication US12582625B2, “Methods for treating neuroblastoma” (priority 2015, dated 2026).

Columns and labels:
[1] = NMTRC003 phase II prevention trial: adverse events; format: in vivo
Procedure: Dosing diaries were required to be completed for each cycle. […] The primary endpoint was Event Free Survival (EFS); secondary objectives included Overall Survival (OS) and safety. EFS was defined as the period from the first day of administration of study drug to the first occurrence of relapse or death, and OS was defined as the first day of administration of study drug until death; subjects without an event were censored at the time of last contact. Safety analysis was conducted on all subjects who received at least one dose of study drug, and included the frequency, grading, expectedness and attribution of all adverse events as well as dose interruptions, dose reductions, and treatment discontinuation.

NB cells = settings: DFMO in the 50-150 μM range; cited from earlier work
tumor putrescine levels = settings: eflornithine infusion, without suppressing peripheral platelet counts; cited from earlier work
[2] = human, in vivo, 27 4-week cycles

For NCCCC(N)(C(=O)O)C(F)F (stereo not shown) [DFMO, 2,5-diamino-2-(difluoromethyl) pentanoic acid], which “patients with grade 2-3 transaminitis (most common toxicity)” value ([1]; DFMO 500-1000 mg/m^2 BID) is on record?
The value was under 10%.

What about the tolerability ([1]; DFMO 500-1000 mg/m^2 BID) of the same compound?
The tolerability was “well tolerated”.

And the “ALT elevation Grade 2, patients (%)” value ([1]; Stratum 1, n = 94)?
Its value is 3 (3%).

What about the “ALT elevation Grade 3, patients (%)” value ([1]; Stratum 1, n = 94) of the same compound?
Its value is 5 (5%).

And the “ALT elevation Grade 4, patients (%)” value ([1]; Stratum 1, n = 94)?
The value was 0.

And the “ALT elevation Grade 5, patients (%)” value ([1]; Stratum 1, n = 94)?
Its value is 0.

What about the “AST elevation Grade 2, patients (%)” value ([1]; Stratum 1, n = 94) of the same compound?
The value was 3 (3%).

What about the “AST elevation Grade 3, patients (%)” value ([1]; Stratum 1, n = 94) of the same compound?
Its value is 4 (4%).

What about the “AST elevation Grade 4, patients (%)” value ([1]; Stratum 1, n = 94) of the same compound?
The value was 0.

And the “AST elevation Grade 5, patients (%)” value ([1]; Stratum 1, n = 94)?
The value was 0.

And the “Agitation Grade 2, patients (%)” value ([1]; Stratum 1, n = 94)?
Its value is 1 (1%).

What about the “Agitation Grade 3, patients (%)” value ([1]; Stratum 1, n = 94) of the same compound?
The value was 0.

And the “Agitation Grade 4, patients (%)” value ([1]; Stratum 1, n = 94)?
Its value is 0.

What about the “Agitation Grade 5, patients (%)” value ([1]; Stratum 1, n = 94) of the same compound?
Its value is 0.

What about the “Alopecia Grade 2, patients (%)” value ([1]; Stratum 1, n = 94) of the same compound?
The value was 1 (1%).

What about the “Alopecia Grade 3, patients (%)” value ([1]; Stratum 1, n = 94) of the same compound?
Its value is 0.

And the “Alopecia Grade 4, patients (%)” value ([1]; Stratum 1, n = 94)?
Its value is 0.

What about the “Alopecia Grade 5, patients (%)” value ([1]; Stratum 1, n = 94) of the same compound?
Its value is 0.

And the “Anemia Grade 2, patients (%)” value ([1]; Stratum 1, n = 94)?
The value was 4 (4%).

And the “Anemia Grade 3, patients (%)” value ([1]; Stratum 1, n = 94)?
The value was 0.

What about the “Anemia Grade 4, patients (%)” value ([1]; Stratum 1, n = 94) of the same compound?
The value was 0.

And the “Anemia Grade 5, patients (%)” value ([1]; Stratum 1, n = 94)?
The value was 0.

What about the “Anorexia Grade 2, patients (%)” value ([1]; Stratum 1, n = 94) of the same compound?
The value was 1 (1%).

And the “Anorexia Grade 3, patients (%)” value ([1]; Stratum 1, n = 94)?
The value was 0.

What about the “Anorexia Grade 4, patients (%)” value ([1]; Stratum 1, n = 94) of the same compound?
The value was 0.

What about the “Anorexia Grade 5, patients (%)” value ([1]; Stratum 1, n = 94) of the same compound?
The value was 0.

And the “Diarrhea Grade 2, patients (%)” value ([1]; Stratum 1, n = 94)?
Its value is 5 (5%).

What about the “Diarrhea Grade 3, patients (%)” value ([1]; Stratum 1, n = 94) of the same compound?
Its value is 0.

What about the “Diarrhea Grade 4, patients (%)” value ([1]; Stratum 1, n = 94) of the same compound?
Its value is 0.

And the “Diarrhea Grade 5, patients (%)” value ([1]; Stratum 1, n = 94)?
The value was 0.

And the “Fever Grade 2, patients (%)” value ([1]; Stratum 1, n = 94)?
The value was 2 (2%).

What about the “Fever Grade 3, patients (%)” value ([1]; Stratum 1, n = 94) of the same compound?
Its value is 0.

And the “Fever Grade 4, patients (%)” value ([1]; Stratum 1, n = 94)?
The value was 0.

And the “Fever Grade 5, patients (%)” value ([1]; Stratum 1, n = 94)?
The value was 0.

And the “Hearing Loss Grade 2, patients (%)” value ([1]; Stratum 1, n = 94)?
The value was 2 (2%).

What about the “Hearing Loss Grade 3, patients (%)” value ([1]; Stratum 1, n = 94) of the same compound?
Its value is 4 (4%).

What about the “Hearing Loss Grade 4, patients (%)” value ([1]; Stratum 1, n = 94) of the same compound?
Its value is 0.

What about the “Hearing Loss Grade 5, patients (%)” value ([1]; Stratum 1, n = 94) of the same compound?
Its value is 0.

And the “Hypoglycemia Grade 2, patients (%)” value ([1]; Stratum 1, n = 94)?
Its value is 0.

And the “Hypoglycemia Grade 3, patients (%)” value ([1]; Stratum 1, n = 94)?
Its value is 0.

What about the “Hypoglycemia Grade 4, patients (%)” value ([1]; Stratum 1, n = 94) of the same compound?
The value was 1 (1%).

What about the “Hypoglycemia Grade 5, patients (%)” value ([1]; Stratum 1, n = 94) of the same compound?
Its value is 0.

And the “Hypokalemia Grade 2, patients (%)” value ([1]; Stratum 1, n = 94)?
Its value is 0.

And the “Hypokalemia Grade 3, patients (%)” value ([1]; Stratum 1, n = 94)?
Its value is 2 (2%).

And the “Hypokalemia Grade 4, patients (%)” value ([1]; Stratum 1, n = 94)?
The value was 0.

What about the “Hypokalemia Grade 5, patients (%)” value ([1]; Stratum 1, n = 94) of the same compound?
Its value is 0.

What about the “INR Elevated Grade 2, patients (%)” value ([1]; Stratum 1, n = 94) of the same compound?
Its value is 1 (1%).

What about the “INR Elevated Grade 3, patients (%)” value ([1]; Stratum 1, n = 94) of the same compound?
The value was 0.

And the “INR Elevated Grade 4, patients (%)” value ([1]; Stratum 1, n = 94)?
The value was 0.

And the “INR Elevated Grade 5, patients (%)” value ([1]; Stratum 1, n = 94)?
Its value is 0.

And the “Infection, Other Grade 5, patients (%)” value ([1]; Stratum 1, n = 94)?
Its value is 0.

And the “Infection, middle ear Grade 5, patients (%)” value ([1]; Stratum 1, n = 94)?
The value was 0.

What about the “Neutrophil count decrease Grade 2, patients (%)” value ([1]; Stratum 1, n = 94) of the same compound?
The value was 4 (4%).

What about the “Neutrophil count decrease Grade 3, patients (%)” value ([1]; Stratum 1, n = 94) of the same compound?
Its value is 3 (3%).

And the “Neutrophil count decrease Grade 4, patients (%)” value ([1]; Stratum 1, n = 94)?
Its value is 0.

And the “Neutrophil count decrease Grade 5, patients (%)” value ([1]; Stratum 1, n = 94)?
The value was 0.

What about the “Pain Grade 2, patients (%)” value ([1]; Stratum 1, n = 94) of the same compound?
The value was 2 (2%).

And the “Pain Grade 3, patients (%)” value ([1]; Stratum 1, n = 94)?
The value was 0.

What about the “Pain Grade 4, patients (%)” value ([1]; Stratum 1, n = 94) of the same compound?
The value was 0.

What about the “Pain Grade 5, patients (%)” value ([1]; Stratum 1, n = 94) of the same compound?
The value was 0.

And the “Platelet count decrease Grade 2, patients (%)” value ([1]; Stratum 1, n = 94)?
Its value is 2 (2%).

And the “Platelet count decrease Grade 3, patients (%)” value ([1]; Stratum 1, n = 94)?
The value was 0.

And the “Platelet count decrease Grade 4, patients (%)” value ([1]; Stratum 1, n = 94)?
The value was 0.

What about the “Platelet count decrease Grade 5, patients (%)” value ([1]; Stratum 1, n = 94) of the same compound?
The value was 0.

And the “Post Nasal Drip Grade 2, patients (%)” value ([1]; Stratum 1, n = 94)?
Its value is 1 (1%).

What about the “Post Nasal Drip Grade 3, patients (%)” value ([1]; Stratum 1, n = 94) of the same compound?
The value was 0.

What about the “Post Nasal Drip Grade 4, patients (%)” value ([1]; Stratum 1, n = 94) of the same compound?
Its value is 0.

What about the “Post Nasal Drip Grade 5, patients (%)” value ([1]; Stratum 1, n = 94) of the same compound?
Its value is 0.

And the “Rash Grade 2, patients (%)” value ([1]; Stratum 1, n = 94)?
The value was 1 (1%).

And the “Rash Grade 3, patients (%)” value ([1]; Stratum 1, n = 94)?
The value was 0.

What about the “Rash Grade 4, patients (%)” value ([1]; Stratum 1, n = 94) of the same compound?
The value was 0.

What about the “Rash Grade 5, patients (%)” value ([1]; Stratum 1, n = 94) of the same compound?
Its value is 0.

What about the “Weight Gain Grade 2, patients (%)” value ([1]; Stratum 1, n = 94) of the same compound?
Its value is 1 (1%).

What about the “Weight Gain Grade 3, patients (%)” value ([1]; Stratum 1, n = 94) of the same compound?
Its value is 0.

What about the “Weight Gain Grade 4, patients (%)” value ([1]; Stratum 1, n = 94) of the same compound?
The value was 0.

What about the “Weight Gain Grade 5, patients (%)” value ([1]; Stratum 1, n = 94) of the same compound?
Its value is 0.

What about the “White blood cell decreased Grade 2, patients (%)” value ([1]; Stratum 1, n = 94) of the same compound?
Its value is 2 (2%).

And the “White blood cell decreased Grade 3, patients (%)” value ([1]; Stratum 1, n = 94)?
The value was 0.

What about the “White blood cell decreased Grade 4, patients (%)” value ([1]; Stratum 1, n = 94) of the same compound?
Its value is 0.

What about the “White blood cell decreased Grade 5, patients (%)” value ([1]; Stratum 1, n = 94) of the same compound?
Its value is 0.

What about the “patients with an increase in hearing loss” value ([1]; among patients with pre-existing hearing loss, all returned to baseline after holding medication) of the same compound?
Its value is 4 patients.

And the “Infection, Other Grade 2, patients (%)” value [1, 2]?
The value was 2 (2%).

What about the “Infection, Other Grade 3, patients (%)” value [1, 2] of the same compound?
Its value is 0.

What about the “Infection, Other Grade 4, patients (%)” value [1, 2] of the same compound?
The value was 0.

What about the “Infection, middle ear Grade 2, patients (%)” value [1, 2] of the same compound?
Its value is 2 (2%).

What about the “Infection, middle ear Grade 3, patients (%)” value [1, 2] of the same compound?
Its value is 0.

What about the “Infection, middle ear Grade 4, patients (%)” value [1, 2] of the same compound?
Its value is 0.

What about the “population that did not report any related adverse events” value ([1]; over 2 years) of the same compound?
Its value is 67%.

And the “serious adverse events (SAE)” value ([1]; whole study)?
Its value is “only one SAE involving hypoglycemia”.

And the “killing of NB cells” value (NB cells)?
The value was “do not kill NB cells”.

What about the “decrease in tumor putrescine levels” value (tumor putrescine levels) of the same compound?
The value was 90%.
